ChEMBL document CHEMBL5344481, “Design, synthesis and biological evaluation of rhein-piperazine-furanone hybrids as potential anticancer agents” (RSC Med Chem, 2024)
Each block holds one compound with its values, some of them ahead of it.

What was measured:
[1] = tested on: HeLa; test: Anticancer activity against human HeLa cells incubated for 48 hrs by MTT assay; assay type: functional, cell-based
[2] = Selectivity index, ratio of IC50 for human WI-38 cells to IC50 for human Calu-1 cells; assay type: toxicity; settings: WI-38 cells versus Calu-1 cells, read-out: Ratio IC50
[3] = tested on: NCI-H460; test: Induction of apoptosis in human NCI-H460 cells assessed as […] cells at 8 uM incubated for 48 hrs by Annexin V-FITC/PI staining based flow cytometry (reference value: 2.17 to 2.38 %); assay type: functional
[4] = tested on: NCI-H460; test: Induction of apoptosis in human NCI-H460 cells assessed as viable cells at 0.8 uM incubated for 48 hrs by Annexin V-FITC/PI staining based flow cytometry (reference value: 92.82 to 93.46 %); assay type: functional; settings: read-out: Activity
[5] = Cytotoxicity against human WI-38 cells incubated for 48 hrs by MTT assay; assay type: toxicity, cell-based
[6] = tested on: 786-0; test: Anticancer activity against human 786-0 cells incubated for 48 hrs by MTT assay; assay type: functional, cell-based; settings: 786-0, 48 h
[7] = tested on: NCI-H460; test: Anticancer activity against human NCI-H460 cells incubated for 48 hrs by MTT assay; assay type: functional, cell-based; settings: NCI-H460, 48 h
[8] = tested on: SK-BR-3; test: Anticancer activity against human SK-BR-3 cells incubated for 48 hrs by MTT assay; assay type: functional, cell-based; settings: SK-BR-3, 48 h
[9] = tested on: NCI-H460; test: Induction of apoptosis in human NCI-H460 cells assessed as necrotic cells at 8 uM incubated for 48 hrs by Annexin V-FITC/PI staining based flow cytometry (reference value: 0.02 to 0.06 %); assay type: functional
[10] = tested on: Calu-1; test: Anticancer activity against human Calu-1 cells incubated for 48 hrs by MTT assay; assay type: functional, cell-based; settings: Calu-1, 48 h
[11] = Selectivity index, ratio of IC50 for human WI-38 cells to IC50 for human H460 cells; assay type: toxicity; settings: WI-38 cells versus H460 cells, read-out: Ratio IC50
[12] = Cytotoxicity against human KGN cells incubated for 48 hrs by MTT assay; assay type: toxicity, cell-based
[13] = tested on: A549; test: Anticancer activity against human A549 cells incubated for 48 hrs by MTT assay; assay type: functional, cell-based; settings: A549, 48 h
[14] = tested on: NCI-H460; test: Induction of apoptosis in human NCI-H460 cells assessed as […] cells at 80 uM incubated for 48 hrs by Annexin V-FITC/PI staining based flow cytometry (reference value: 4.31 to 4.76 %); assay type: functional
[15] = tested on: NCI-H460; test: Induction of apoptosis in human NCI-H460 cells assessed as […] cells at 0.8 uM incubated for 48 hrs by Annexin V-FITC/PI staining based flow cytometry (reference value: 4.31 to 4.76 %); assay type: functional
[16] = tested on: NCI-H460; test: Induction of apoptosis in human NCI-H460 cells assessed as total apoptotic cells at 0.8 uM incubated for 48 hrs by Annexin V-FITC/PI staining based flow cytometry (reference value: 6.85 %); assay type: functional
[17] = tested on: NCI-H460; test: Induction of apoptosis in human NCI-H460 cells assessed as total apoptotic cells at 80 uM incubated for 48 hrs by Annexin V-FITC/PI staining based flow cytometry (reference value: 6.85 %); assay type: functional
[18] = tested on: NCI-H460; test: Induction of apoptosis in human NCI-H460 cells assessed as necrotic cells at 80 uM incubated for 48 hrs by Annexin V-FITC/PI staining based flow cytometry (reference value: 0.02 to 0.06 %); assay type: functional
[19] = tested on: NCI-H460; test: Induction of apoptosis in human NCI-H460 cells assessed as viable cells at 80 uM incubated for 48 hrs by Annexin V-FITC/PI staining based flow cytometry (reference value: 92.82 to 93.46 %); assay type: functional; settings: read-out: Activity
[20] = tested on: NCI-H460; test: Induction of apoptosis in human NCI-H460 cells assessed as […] cells at 80 uM incubated for 48 hrs by Annexin V-FITC/PI staining based flow cytometry (reference value: 2.17 to 2.38 %); assay type: functional
[21] = tested on: SK-OV-3; test: Anticancer activity against human SK-OV-3 cells incubated for 48 hrs by MTT assay; assay type: functional, cell-based; settings: SK-OV-3, 48 h
[22] = tested on: NCI-H460; test: Induction of apoptosis in human NCI-H460 cells assessed as […] cells at 8 uM incubated for 48 hrs by Annexin V-FITC/PI staining based flow cytometry (reference value: 4.31 to 4.76 %); assay type: functional
[23] = Cytotoxicity against human HEK-293T cells incubated for 48 hrs by MTT assay; assay type: toxicity, cell-based
[24] = tested on: NCI-H460; test: Induction of apoptosis in human NCI-H460 cells assessed as viable cells at 8 uM incubated for 48 hrs by Annexin V-FITC/PI staining based flow cytometry (reference value: 92.82 to 93.46 %); assay type: functional; settings: read-out: Activity
[25] = tested on: PC-9; test: Anticancer activity against human PC-9 cells incubated for 48 hrs by MTT assay; assay type: functional, cell-based; settings: PC-9, 48 h
[26] = Cytotoxicity against human MCF-10A cells incubated for 48 hrs by MTT assay; assay type: toxicity, cell-based
[27] = tested on: NCI-H460; test: Induction of apoptosis in human NCI-H460 cells assessed as necrotic cells at 0.8 uM incubated for 48 hrs by Annexin V-FITC/PI staining based flow cytometry (reference value: 0.02 to 0.06 %); assay type: functional
[28] = tested on: Huh-7; test: Anticancer activity against human Huh-7 cells incubated for 48 hrs by MTT assay; assay type: functional, cell-based; settings: Huh-7, 48 h
[29] = Selectivity index, ratio of IC50 for human WI-38 cells to IC50 for human A549 cells; assay type: toxicity; settings: WI-38 cells versus A549 cells, read-out: Ratio IC50
[30] = tested on: HCT-116; test: Anticancer activity against human HCT-116 cells incubated for 48 hrs by MTT assay; assay type: functional, cell-based; settings: HCT-116, 48 h
[31] = tested on: NCI-H460; test: Induction of apoptosis in human NCI-H460 cells assessed as total apoptotic cells at 8 uM incubated for 48 hrs by Annexin V-FITC/PI staining based flow cytometry (reference value: 6.85 %); assay type: functional
[32] = tested on: NCI-H460; test: Induction of apoptosis in human NCI-H460 cells assessed as […] cells at 0.8 uM incubated for 48 hrs by Annexin V-FITC/PI staining based flow cytometry (reference value: 2.17 to 2.38 %); assay type: functional
[33] = Selectivity index, ratio of IC50 for human MCF-10A cells to IC50 for human SK-BR-3 cells; assay type: toxicity; settings: MCF-10A cells versus SK-BR-3 cells, read-out: Ratio IC50

Structure (SMILES): CC(=O)Oc1cccc2c1C(=O)c1c(OC(C)=O)cc(C(=O)N3CCN(C4=C(Br)C(=O)O[C@@H]4O[C@@H]4C[C@H](C)CC[C@H]4C(C)C)CC3)cc1C2=O
IC50 at 48 h [5]: 24.9 µM | IC50 [13]: 46.9 µM | selectivity ratio [29]: 1

Structure (SMILES): CC(=O)Oc1cccc2c1C(=O)c1c(OC(C)=O)cc(C(=O)N3CCN(C4=C(Br)C(=O)OC4O[C@@H]4CC5CCC4(C)C5(C)C)CC3)cc1C2=O (some centres undefined)
IC50 at 48 h [5]: 43.1 µM | IC50 [13]: 86.7 µM | selectivity ratio [29]: 1

Structure (SMILES): CC(C)[C@@H]1CC[C@@H](C)C[C@H]1O[C@H]1OC(=O)C(Cl)=C1N1CCN(C(=O)c2cc(O)c3c(c2)C(=O)c2cccc(O)c2C3=O)CC1
IC50 at 48 h [5]: 296 µM | IC50 [13]: 46.5 µM | selectivity ratio [29]: 6

Structure (SMILES): CC(C)[C@@H]1CC[C@@H](C)C[C@H]1O[C@H]1OC(=O)C(Br)=C1N1CCN(C(=O)c2cc(O)c3c(c2)C(=O)c2cccc(O)c2C3=O)CC1
IC50 at 48 h [5]: 167 µM | IC50 [13]: 117 µM | selectivity ratio [29]: 1

Structure (SMILES): CC(=O)Oc1cccc2c1C(=O)c1c(OC(C)=O)cc(C(=O)N3CCN(C4=C(Cl)C(=O)O[C@@H]4O[C@@H]4C[C@H](C)CC[C@H]4C(C)C)CC3)cc1C2=O
IC50 at 48 h [5]: 66.3 µM | IC50 [13]: 115 µM | selectivity ratio [29]: 1

Structure (SMILES): Nc1ccn([C@@H]2O[C@H](CO)[C@@H](O)[C@@H]2O)c(=O)n1 [CYTARABINE]
IC50 at 48 h [5]: 493 µM | selectivity ratio [29]: 2

More lines, in order of falling IC50 [13], values ahead:

IC50 [13]: 266 µM
Structure (SMILES): O=C(O)c1cc(O)c2c(c1)C(=O)c1cccc(O)c1C2=O [RHEIN]
selectivity ratio [29]: 1

IC50 [13]: 112 µM
Structure (SMILES): CC1(C)C2CCC1(C)[C@H](OC1OC(=O)C(Br)=C1N1CCN(C(=O)c3cc(O)c4c(c3)C(=O)c3cccc(O)c3C4=O)CC1)C2 (some centres undefined)
IC50 at 48 h [5]: 152 µM | selectivity ratio [29]: 1

IC50 [13]: 106 µM
Structure (SMILES): CC1(C)C2CCC1(C)[C@H](OC1OC(=O)C(Cl)=C1N1CCN(C(=O)c3cc(O)c4c(c3)C(=O)c3cccc(O)c3C4=O)CC1)C2 (some centres undefined)
IC50 at 48 h [5]: 173 µM | selectivity ratio [29]: 2

IC50 [13]: 69.1 µM
Structure (SMILES): CC(=O)Oc1cccc2c1C(=O)c1c(OC(C)=O)cc(C(=O)N3CCN(C4=C(Cl)C(=O)OC4O[C@@H]4CC5CCC4(C)C5(C)C)CC3)cc1C2=O (some centres undefined)
IC50 at 48 h [5]: 34.7 µM | selectivity ratio [29]: 1

IC50 [1]: 30.5 µM | IC50 [6]: 20.7 µM | IC50 [7]: 4.35 µM | IC50 [8]: 19.1 µM | IC50 [10]: 15.4 µM | IC50 [13]: 5.74 µM | IC50 [21]: 60.5 µM | IC50 [25]: 5.78 µM | IC50 [28]: 21 µM | IC50 [30]: 13.8 µM
Structure (SMILES): COC1OC(=O)C(Cl)=C1N1CCN(C(=O)c2cc(OC(C)=O)c3c(c2)C(=O)c2cccc(OC(C)=O)c2C3=O)CC1 (centres undefined)
selectivity ratio [2]: 5 | Activity [3]: 18.88% | viability at 0.8 µM [4]: 89.5% | IC50 at 48 h [5]: 69.3 µM | Activity [9]: 0.06% | selectivity ratio [11]: 16 | IC50 at 48 h [12]: 76.4 µM | Activity [14]: 25.81% | Activity [15]: 5.09% | Activity [16]: 9.38% | Activity [17]: 56.57% | Activity [18]: 0.07% | viability at 80 µM [19]: 42.6% | Activity [20]: 29.91% | Activity [22]: 18.14% | IC50 at 48 h [23]: 9.15 µM | viability at 8 µM [24]: 61.1% | IC50 at 48 h [26]: 17 µM | Activity [27]: 0.12% | selectivity ratio [29]: 12 | Activity [31]: 37.72% | Activity [32]: 3.49% | selectivity ratio [33]: 1

IC50 [13]: 5.49 µM
Structure (SMILES): COC1OC(=O)C(Br)=C1N1CCN(C(=O)c2cc(OC(C)=O)c3c(c2)C(=O)c2cccc(OC(C)=O)c2C3=O)CC1 (centres undefined)
IC50 at 48 h [5]: 39.1 µM | selectivity ratio [29]: 7
